In ChEMBL document CHEMBL6109137, “Design, Synthesis, Evaluation, and SAR of 5-Phenylisoindoline Derivatives, a Potent Class of Small-Molecule Inhibitors Targeting the Programmed Cell Death-1/Programmed Cell Death-Ligand 1 (PD-1/PD-L1) Interaction” (J Med Chem, 2025):
Calls of active or inactive are those of the source. The rule behind the calls is not given here.

Target: T1, Programmed cell death protein 1/Programmed cell death 1 ligand 1 (Homo sapiens) (UniProt Q15116+Q9NZQ7)
Experiment: Inhibition of PD-1/PD-L1 (unknown origin) interaction in human PBMC cells assessed as increase in IFN-gamma level at 100 nM pretreated with anti-CD3/CD28 and PD-L1 followed by compound addition measured after 72 hrs by ELISA
Format: cell-based
Conditions: not given

**Q.** For `Clc1c(-c2ccccc2)cccc1-c1ccc2c(c1)CNC2`, which inhibition is on record?
**A.** Active

Target: T1, Programmed cell death protein 1/Programmed cell death 1 ligand 1 (Homo sapiens)
Experiment: Inhibition of PD-1/PD-L1 (unknown origin) interaction in human PBMC cells assessed as increase in IFN-gamma level at 100 to 1000 nM pretreated with anti-CD3/CD28 and PD-L1 followed by compound addition measured after 72 hrs by ELISA
Format: cell-based
Conditions: dose 100-1000 nM

**Q.** With `Cl.Clc1c(-c2ccc3c(c2)CNC3)cccc1-c1ccc2c(c1)OCCO2` as the compound, how does the inhibition read?
**A.** inactive

Tested on: not listed separately
Experiment: Cytotoxicity against human PBMC cells assessed as inhibition of cell viability by CCK8 assay
Format: toxicity, cell-based
Conditions: not given

**Q.** Which IC50 does the source give for `O=C([C@@H]1CCCN1)N1Cc2ccc(-c3cccc(-c4ccc5c(c4)OCCO5)c3Cl)cc2C1` here?
**A.** > 5000 nM

**Q.** For `Clc1c(-c2ccccc2)cccc1-c1ccc2c(c1)CNC2`, which IC50 is on record?
**A.** > 5000 nM

Target: Programmed cell death protein 1/Programmed cell death 1 ligand 1 (Homo sapiens, UniProt Q9NZQ7)
Experiment: Inhibition of interaction of PD-1/PD-L1 (unknown origin) by HTRF analysis
Format: protein-complex assay
Conditions: not given

Programmed cell death protein 1/Programmed cell death 1 ligand 1, sequence (Q15116 whole entry): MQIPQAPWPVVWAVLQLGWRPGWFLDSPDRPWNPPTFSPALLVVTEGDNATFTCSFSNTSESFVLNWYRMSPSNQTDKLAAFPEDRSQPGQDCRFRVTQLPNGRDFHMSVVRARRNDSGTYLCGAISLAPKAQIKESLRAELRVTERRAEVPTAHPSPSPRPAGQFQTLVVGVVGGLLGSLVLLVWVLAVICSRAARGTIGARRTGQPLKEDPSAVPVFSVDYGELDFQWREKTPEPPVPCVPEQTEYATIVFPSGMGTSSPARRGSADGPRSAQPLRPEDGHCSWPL
Programmed cell death protein 1/Programmed cell death 1 ligand 1, sequence (Q9NZQ7 whole entry): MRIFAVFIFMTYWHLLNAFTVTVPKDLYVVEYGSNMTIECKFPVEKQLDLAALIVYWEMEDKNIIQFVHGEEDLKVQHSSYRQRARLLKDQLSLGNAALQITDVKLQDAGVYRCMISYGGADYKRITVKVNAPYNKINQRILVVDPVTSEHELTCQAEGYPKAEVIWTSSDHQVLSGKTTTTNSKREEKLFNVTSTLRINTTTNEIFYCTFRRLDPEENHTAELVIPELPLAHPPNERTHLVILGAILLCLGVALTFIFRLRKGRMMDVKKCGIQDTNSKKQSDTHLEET

**Q.** For `Cc1c(-c2ccccc2)cccc1-c1ccc2c(c1)CN(C(=O)[C@H](C)N)C2`, which IC50 is on record?
**A.** 30.4 nM

**Q.** For `Cc1c(-c2ccccc2)cccc1-c1ccc2c(c1)CN(C(=O)[C@H]1NCCC1O)C2` (stereo not given in full), which IC50 is on record?
**A.** 24.2 nM

**Q.** With `Cc1c(-c2ccccc2)cccc1-c1ccc2c(c1)CN(C(=O)[C@@H](N)CCCCN)C2` as the compound, how does the IC50 read?
**A.** 539 nM

**Q.** With `N#Cc1c(-c2ccccc2)cccc1-c1ccc2c(c1)CN(C(=O)[C@@H]1CCCCN1)C2` as the compound, how does the IC50 read?
**A.** 64.2 nM

**Q.** Which IC50 does the source give for `Cl.Clc1c(-c2ccc3c(c2)CNC3)cccc1-c1ccc2c(c1)OCCO2` here?
**A.** 5.9 nM

**Q.** Which IC50 does the source give for `C[C@H](N)C(=O)N1Cc2ccc(-c3cccc(-c4ccc5c(c4)OCCO5)c3C#N)cc2C1` here?
**A.** 24.5 nM

**Q.** With `Cc1c(-c2ccccc2)cccc1-c1ccc2c(c1)CN(C(=O)[C@@H](N)CC(=O)O)C2` as the compound, how does the IC50 read?
**A.** 142 nM

**Q.** Which IC50 does the source give for `N#Cc1c(-c2ccccc2)cccc1-c1ccc2c(c1)C(=O)NC2=O` here?
**A.** > 10000 nM

**Q.** Which IC50 does the source give for `Cc1c(-c2ccccc2)cccc1-c1ccc2c(c1)CN(C(=O)[C@@H]1C[C@H](O)CN1)C2` here?
**A.** 84.5 nM

**Q.** Which IC50 does the source give for `C[C@H](N)C(=O)N1Cc2ccc(-c3cccc(-c4ccccc4)c3Cl)cc2C1` here?
**A.** 12.9 nM

**Q.** With `c1ccc(-c2cccc(-c3ccc4c(c3)CNC4)c2)cc1` as the compound, how does the IC50 read?
**A.** > 10000 nM

**Q.** Which IC50 does the source give for `O=C([C@@H]1CCCN1)N1Cc2ccc(-c3cccc(-c4ccc5c(c4)OCCO5)c3Cl)cc2C1` here?
**A.** 15.6 nM

**Q.** For `Cc1c(-c2ccccc2)cccc1-c1ccc2c(c1)CN(C(=O)CN)C2`, which IC50 is on record?
**A.** 293 nM

**Q.** With `O=C([C@@H]1CCCCN1)N1Cc2ccc(-c3cccc(-c4ccc5c(c4)OCCO5)c3Cl)cc2C1` as the compound, how does the IC50 read?
**A.** 26.2 nM

**Q.** With `Oc1c(-c2ccccc2)cccc1-c1ccc2c(c1)CNC2` as the compound, how does the IC50 read?
**A.** > 10000 nM

**Q.** Which IC50 does the source give for `Nc1c(-c2ccccc2)cccc1-c1ccc2c(c1)CNC2` here?
**A.** 194 nM

**Q.** For `N#Cc1c(-c2ccccc2)cccc1-c1ccc2c(c1)CN(C(=O)[C@@H]1CCCN1)C2`, which IC50 is on record?
**A.** 85.7 nM

**Q.** Which IC50 does the source give for `N#Cc1c(-c2ccc3c(c2)CNC3)cccc1-c1ccc2c(c1)OCCO2` here?
**A.** 18.5 nM

**Q.** Which IC50 does the source give for `Cc1c(-c2ccccc2)cccc1-c1ccc2c(c1)CN(C(=O)[C@@H]1CCCCN1)C2` here?
**A.** 19.3 nM

**Q.** With `N#Cc1c(-c2ccccc2)cccc1-c1ccc2c(c1)CNC2` as the compound, how does the IC50 read?
**A.** 47.6 nM

**Q.** Which IC50 does the source give for `NCC(=O)N1Cc2ccc(-c3cccc(-c4ccccc4)c3Cl)cc2C1` here?
**A.** 90.3 nM

**Q.** For `Cc1c(-c2ccc3c(c2)CNC3)cccc1-c1ccc2c(c1)OCCO2`, which IC50 is on record?
**A.** 35.8 nM

**Q.** With `Fc1c(-c2ccccc2)cccc1-c1ccc2c(c1)CNC2` as the compound, how does the IC50 read?
**A.** 95.6 nM

**Q.** With `N#Cc1c(-c2ccccc2)cccc1-c1ccc2c(c1)CNC2=O` as the compound, how does the IC50 read?
**A.** 145 nM

**Q.** With `O=C([C@@H]1CCCCN1)N1Cc2ccc(-c3cccc(-c4ccccc4)c3Cl)cc2C1` as the compound, how does the IC50 read?
**A.** 11.4 nM

**Q.** With `COc1c(-c2ccccc2)cccc1-c1ccc2c(c1)CNC2` as the compound, how does the IC50 read?
**A.** 115 nM

**Q.** With `C[C@H](N)C(=O)N1Cc2ccc(-c3cccc(-c4ccccc4)c3C#N)cc2C1` as the compound, how does the IC50 read?
**A.** 50 nM

**Q.** With `Clc1c(-c2ccccc2)cccc1-c1ccc2c(c1)CNC2` as the compound, how does the IC50 read?
**A.** 9.4 nM

**Q.** For `Clc1c(-c2ccc3c(c2)CNC3)cccc1-c1ccc2nonc2c1`, which IC50 is on record?
**A.** 880 nM

**Q.** Which IC50 does the source give for `O=C([C@@H]1CCCN1)N1Cc2ccc(-c3cccc(-c4ccccc4)c3Cl)cc2C1` here?
**A.** 17.9 nM

**Q.** For `Cc1c(-c2ccccc2)cccc1-c1ccc2c(c1)CN(C(=O)[C@@H](N)CO)C2`, which IC50 is on record?
**A.** 94.8 nM

**Q.** With `Cc1c(-c2ccccc2)cccc1-c1ccc2c(c1)C(=O)NC2=O` as the compound, how does the IC50 read?
**A.** > 10000 nM

**Q.** Which IC50 does the source give for `Cc1c(-c2ccccc2)cccc1-c1ccc2c(c1)CN(C(=O)[C@@H]1CCCN1)C2` here?
**A.** 7.1 nM

**Q.** For `COC(=O)C[C@H](N)C(=O)N1Cc2ccc(-c3cccc(-c4ccccc4)c3C)cc2C1`, which IC50 is on record?
**A.** 416 nM

**Q.** Which IC50 does the source give for `N#Cc1c(-c2ccccc2)cccc1-c1ccc2c(c1)C(=O)NC2` here?
**A.** 1520 nM

Tested on: not listed separately
Experiment: Cytotoxicity against human PBMC cells assessed as inhibition of cell viability at 50 to 5000 nM by CCK8 assay
Format: toxicity, cell-based
Conditions: 5 µM, dose 50-5000 nM

**Q.** With `Cl.Clc1c(-c2ccc3c(c2)CNC3)cccc1-c1ccc2c(c1)OCCO2` as the compound, how does the Activity read?
**A.** Toxic
